Article PMC11406360, “The enzymatic oxygen sensor cysteamine dioxygenase binds its protein substrates through their N-termini” (The Journal of Biological Chemistry, 2024)
Substitutions are numbered along the chain they refer to. In names and notes the source's numbering stands. Each block holds one molecule with its values, some of them ahead of it. Where a SMILES comes first, the peptide text is derived from it.

Assays:
ADO-Zn^2+ [1] = target: T1, ADO-Zn^2+ (Homo sapiens, UniProt Q96SZ5); assay: SPR binding to zinc-substituted ADO; details: SPR steady state, 1:1 model, 4 °C; geometric mean of minimum three independent measurements
T1 construct: Full-length human ADO (UniProt ID: Q96SZ5) was cloned; made in house; host or cells: Rosetta2(DE3) Escherichia coli, M9 minimal media with 0.2 mM Co2+ or Zn2+
T1 sequence (Q96SZ5 1-270): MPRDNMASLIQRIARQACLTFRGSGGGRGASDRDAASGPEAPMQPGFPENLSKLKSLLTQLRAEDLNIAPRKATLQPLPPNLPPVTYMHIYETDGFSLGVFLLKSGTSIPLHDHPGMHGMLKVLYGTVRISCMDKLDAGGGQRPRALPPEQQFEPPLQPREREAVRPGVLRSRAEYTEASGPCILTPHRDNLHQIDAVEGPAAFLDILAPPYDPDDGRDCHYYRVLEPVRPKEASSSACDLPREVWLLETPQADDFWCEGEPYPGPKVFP
Experimental: To study if different metals can compensate for the inherent iron cofactor, zinc (Zn^2+) and cobalt (Co^2+) substituted ADO was produced through minimal media expression, validated by ICP-MS, and analyzed for binding by SPR (Fig. 2E).
(§1) SPR measurements were made using a Biacore T200 (Cytiva) instrument and data were analyzed using the Biacore Insight Evaluation Software (Cytiva; https://www.cytivalifesciences.com/en/us/shop/protein-analysis/spr-label-free-analysis/spr-software-and-extensions/biacore-insight-evaluation-software-p-23528). Biotinylated-ADO was immobilized on a Biotin CAP chip (Cytiva) with a target density of ∼2500 to 3000 RU and peptide/protein substrates were injected over the chip. […] A buffer comprising 20 mM Hepes pH 7.5, 500 mM NaCl, 10 mM DTT, and 0.1% (v/v) tween-20 was used as the running buffer at a flow rate of 50 μl/min.

ADO-Zn^2+ [2] = target: T1, ADO-Zn^2+; assay: LC-MS turnover time course with zinc-substituted ADO; type: biochemical; details: 100 μM peptide, 0.1 μM enzyme, 37 °C, attributed to residual iron bound ADO
Experimental: (§2) The catalytic functionality of the metal substituted ADO proteins was subsequently assessed by LC-MS using RGS5 peptide as a representative protein substrate. […] However, product formation was observed following long incubation times (≥30 min), with ∼80% conversion detected overnight, which is likely attributed to the activity of residual iron bound ADO (Fig. 2, E and H). Together, these findings indicate that different transition metals can substitute iron to facilitate protein substrate binding but not catalysis.
(§3) The enzymatic activity of ADO was examined by incubating between 0 to 1000 μM peptide and protein substrates with 0.05 to 0.1 μM ADO in a bench-top thermomixer at 37 °C for 45 s. Otherwise stated, the reaction buffer contained 50 mM Tris pH 7.5, 50 mM NaCl, and 5 mM TCEP. […]
(§4) Peptide and protein samples were injected onto a Chromolith RP-18 Endcapped HPLC Columns (100–2 mm; Merck) and Discovery BIO Wide Pore C5 HPLC Column (Supelco), respectively, heated to 40 °C and eluted at 0.3 ml/min using a gradient of 95% deionized water supplemented with 0.1% (v/v) formic acid to 95% acetonitrile. Oxidation was monitored by an ultra high-performance liquid chromatography MS using ExionLC AD (Sciex) and SelexION (Sciex) mass spectrometer operated in a positive electrospray TOF (+ESI-TOF) mode. […]

ADO-Co^2+ = target: T2, ADO-Co^2+ (Homo sapiens, UniProt Q96SZ5); assay: LC-MS turnover time course with cobalt-substituted ADO; type: biochemical; details: 100 μM peptide, 0.1 μM enzyme, 37 °C, attributed to residual iron bound ADO
T2 construct: Full-length human ADO (UniProt ID: Q96SZ5) was cloned; made in house; host or cells: Rosetta2(DE3) Escherichia coli, M9 minimal media with 0.2 mM Co2+ or Zn2+
T2 sequence (Q96SZ5 1-270): T1 sequence (Q96SZ5 1-270)
Experimental: as §2, §3, §4

[3] = target: T3, ADO (2-aminoethanethiol dioxygenase), iron-bound wild type (Homo sapiens, UniProt Q96SZ5); assay: SPR binding of peptide/protein substrates to immobilised ADO; details: SPR steady state, 1:1 binding model, biotinylated ADO on Biotin CAP chip, 4 °C, 20 mM Hepes pH 7.5, 500 mM NaCl, 10 mM DTT, 0.1% tween-20; geometric mean (± SD) of minimum three independent measurements; read-out: Equilibrium dissociation constant KD
T3 construct: Full-length human ADO (UniProt ID: Q96SZ5) was cloned; made in house; host or cells: Rosetta2(DE3) Escherichia coli
T3 sequence (Q96SZ5 1-270): T1 sequence (Q96SZ5 1-270)
Source text: ADO catalyzes the O2-dependent sulfinylation of Nt-cys residues, which reportedly bind to the iron cofactor in a monodentate arrangement through ligation of the thiol group ([14], [15]). To test the importance of Nt-cys modifications and substitutions on ADO association, a SPR assay was established. […] Data collected under steady state conditions is presented in the main text and kinetic constants are provided in the Tables S1–S8 (alongside steady state measurements). All measurements were collected at 4 °C to minimize enzyme activity.
as §1
For metal-chelation experiments, a mixture of 10 mM 1, 10-phenanthroline and 100 mM EDTA (pH 8) was injected onto the chip using 10 × 60 s injections at a 100 μl/min flow rate. […] The instrument and chip were primed into buffer excluding reducing agents before conducting metal chelation and iron reconstitution.

ADO = target: T4, ADO (Homo sapiens, UniProt Q96SZ5); assay: 15N-HSQC NMR titration with ADO; type: binding; details: 50 μM 15N-labelled protein, 20 mM Hepes pH 7.5, 150 mM NaCl, 10 mM DTT, ADO up to 800 μM
T4 construct: Full-length human ADO (UniProt ID: Q96SZ5) was cloned; made in house; host or cells: Rosetta2(DE3) Escherichia coli
T4 sequence (Q96SZ5 1-270): T1 sequence (Q96SZ5 1-270)
Experimental: (§5) For titrations with ADO, ^15N-labeled RGS5^FL proteins were prepared at 50 μM, in buffer containing 20 mM Hepes pH 7.5, 150 mM NaCl, 10 mM DTT, and 10% (v/v) D2O. ^15N-HSQC spectra were collected before and after the addition of ADO to the labeled RGS5^FL samples. Intensity-based CSP plots were produced by calculating peak height values from the ^15N-HSQCs before and after addition of ADO and normalizing against the heights of ∼5 peaks from the HSQC that remained invariant throughout the titration.

ADO-H193D = target: T5, ADO-H193D (Homo sapiens, UniProt Q96SZ5, H193D); assay: 15N-HSQC NMR titration with ADO-H193D; type: binding; details: 50 μM 15N-labelled protein, 150 μM ADO-H193D
T5 construct: Full-length human ADO (UniProt ID: Q96SZ5) was cloned; made in house; host or cells: Rosetta2(DE3) Escherichia coli
T5 sequence (Q96SZ5 1-270 H193D): T1 sequence (Q96SZ5 1-270) with H193D
Experimental: as §5

Kd (ADO-Zn^2+ [1]): 250 ± 370 nM
Conversion by ADO-Zn^2+ overnight (ADO-Zn^2+ [2]): ~80%
Conversion by ADO-Co^2+ overnight (ADO-Co^2+): ~80%
Kd [3]: 290 ± 45 nM
Molecule: CC(C)C[C@H](NC(=O)CNC(=O)[C@H](CCCCN)NC(=O)[C@@H](N)CS)C(=O)N[C@@H](C)C(=O)N[C@@H](C)C(=O)N[C@@H](CC(C)C)C(=O)N1CCC[C@H]1C(=O)N[C@@H](Cc1c[nH]cn1)C(=O)N[C@@H](CO)C(=O)N[C@@H](CS)C(=O)N[C@@H](CC(C)C)C(=O)N[C@@H](CCC(=O)O)C(=O)N[C@@H](CCCNC(=N)N)C(N)=O [RGS5] (H-CKGLAALPHSCLER-NH2)

15N-HSQC interaction on titration of ADO-H193D (ADO-H193D): no interaction was observed
B1: RGS5^FL-C2S: full-length RGS5 C2S mutant (protein)
chain: MSKGLAALPHSCLERAKEIKIKLGILLQKPDSVGDLVIPYNEKPEKPAKTQKTSLDEALQWRDSLDKLLQNNYGLASFKSFLKSEFSEENLEFWIACEDYKKIKSPAKMAEKAKQIYEEFIQTEAPKEVNIDHFTKDITMKNLVEPSLSSFDMAQKRIHALMEKDSLPRFVRSEFYQELIK
modifications: left off: His tag, N-terminal, cleaved | SUMO, N-terminal, cleaved
notes: full-length RGS5 C2S mutant
15N-HSQC chemical shift perturbations on titration of ADO (ADO): induced CSPs in the portion of the ^15N-HSQC corresponding to the disordered N terminus of RGS5
